Measured values reported in publication PMC10810651, “Discovery of novel and potent CDK8 inhibitors for the treatment of acute myeloid leukaemia” (Journal of Enzyme Inhibition and Medicinal Chemistry, 2024).
Where two headings read alike, the source gives them in different places.

Assays:
CDK8 = CDK8 (Homo sapiens, UniProt P49336); assay: CDK8 enzyme activity assay (ADP-Glo Kinase Assay); assay type: biochemical; settings: means ± SD; for inhibition at 0.2 µM: CDK8, 200 nM, two experiments, read-out: Inhibition rate @ 200 nM (%); for IC50: three experiments
Chain of CDK8 (P49336 whole entry): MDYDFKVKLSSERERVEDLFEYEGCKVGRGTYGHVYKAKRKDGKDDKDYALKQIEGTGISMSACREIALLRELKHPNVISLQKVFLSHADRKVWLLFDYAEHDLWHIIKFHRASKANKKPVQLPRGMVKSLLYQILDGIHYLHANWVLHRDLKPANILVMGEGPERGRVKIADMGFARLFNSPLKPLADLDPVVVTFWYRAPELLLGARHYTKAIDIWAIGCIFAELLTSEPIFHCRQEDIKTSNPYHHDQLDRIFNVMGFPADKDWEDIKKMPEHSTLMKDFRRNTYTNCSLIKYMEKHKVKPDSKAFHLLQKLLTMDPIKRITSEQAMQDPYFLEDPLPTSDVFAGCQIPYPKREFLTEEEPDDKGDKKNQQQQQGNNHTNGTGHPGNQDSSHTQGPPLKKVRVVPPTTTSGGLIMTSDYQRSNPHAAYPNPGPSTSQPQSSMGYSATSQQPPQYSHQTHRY
Chain of CDK8 (P24863 whole entry partner): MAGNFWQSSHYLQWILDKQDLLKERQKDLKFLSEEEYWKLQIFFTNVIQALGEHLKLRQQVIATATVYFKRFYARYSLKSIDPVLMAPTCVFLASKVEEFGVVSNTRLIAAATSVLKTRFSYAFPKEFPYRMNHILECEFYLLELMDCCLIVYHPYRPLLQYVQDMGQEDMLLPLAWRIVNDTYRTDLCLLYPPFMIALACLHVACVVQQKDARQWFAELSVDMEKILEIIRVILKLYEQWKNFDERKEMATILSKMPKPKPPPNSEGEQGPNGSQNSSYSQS
Protocol: Some of them with high inhibition rates were further measured for their IC50 values. Compound SEL-120 34 A was selected as a positive control. [table] [table] page 14: CO2 atmosphere incubator for 24 h. Then, medium with compound at the concentrations of 100, 20, 4, 0.8, 0.016 μM was added into each well for another 48 h and incubated with CCK-8 (10 μL) for 2 h at 37 °C. The absorbance value at 450 nm was measured by the microplate reader (PerkinElmer Envision). 1.4 Kinase Assay The kinase inhibition was detected by ADP-Glo™ Kinase Assay (Promega) using a black 384-well plate. The active CDK8 kinase was diluted in mixture (5 ng enzyme, 0.5 μg substrate, 50 μM DTT, 1 μL reaction buffer and added ddH2O to 3 μL each well) and the final ATP concentrations of was 50 μM. After incubation at room temperature, ADP-Glo™ solution and kinase detection reagent was added. The data was collected by the microplate reader. 1.5 Cellular thermal shift assay HCT-116 cells were cultured in cell culture dishes and treated with 5 μM compound 12 for 4 h. HCT-116 cells were collected, washed by PBS and cell suspensions were divided into 12 PCR tubes equally. Then,11 tubes were heated at 37, […] After that, cells were broken by ultr asonic treatment and centrifuged at 12000 rpm for 20 min. The supernatant was analyzed by western blot. 1.6 Biotin-pulldown assay After co-treated with 2 μM biotinylated compound and compound 12 for 12 h, HCT-116 cells were lysed with NP-40 containing PMSF and centrifuged at 14000 r for 30 min at 4 °C. Then, 40 μL supernatant was used as the input by adding 10 μL 5×SDS loading buffer, and the remains were mixed with Streptavidin Agarose (Novex, Carlsbad, CA, USA). After 6 h incuba tion at 4 °C, the beads were washed three times using lysis buffer and resuspended in 2× SDS loading buffer. HEK -293T cells overexpressed flag -tagged CDK8 were treated using above method. The samples were analyzed by western blot.

molm-13 = assay: Antiproliferative CCK-8 assay, molm-13; assay type: cell-based; settings: Homo sapiens; molm-13, CCK-8 assay, means ± SD; read-out: GC50 (the source's name)
Excerpt: (§1) Compounds12, 13 and 30 were selected for further cell activity assessments based on the enzymatic activity assessment results. molm-13 and MV4-11(acute myeloid lineage leukaemia cells), MGC-803 (gastric cancer cell), MDA-MB-231(breast cancer cell), A375 (melanoma cell), A549 (lung cancer cell), HCT-116, SW-480 and HT-29 (colorectal cancer cells) were selected to evaluate antitumor activity in vitro, GES-1 (gastric mucosal epithelial cell) was selected to evaluate toxicity in vitro.
(§2) CO2 atmosphere incubator for 24 h. Then, medium with compound at the concentrations of 100, 20, 4, 0.8, 0.016 μM was added into each well for another 48 h and incubated with CCK-8 (10 μL) for 2 h at 37 °C. The absorbance value at 450 nm was measured by the microplate reader (PerkinElmer Envision). […]

MV4-11 = assay: Antiproliferative CCK-8 assay, MV4-11; assay type: cell-based; settings: Homo sapiens; MV4-11, CCK-8 assay, means ± SD; read-out: GC50 (the source's name)
Excerpt: as §1, §2

MGC-803 = assay: Antiproliferative CCK-8 assay, MGC-803; assay type: cell-based; settings: Homo sapiens; MGC-803, CCK-8 assay, means ± SD; read-out: GC50 (the source's name)
Excerpt: as §1, §2

MDA-MB-231 = assay: Antiproliferative CCK-8 assay, MDA-MB-231; assay type: cell-based; settings: Homo sapiens; MDA-MB-231, CCK-8 assay, means ± SD; read-out: GC50 (the source's name)
Excerpt: as §1, §2

A375 = assay: Antiproliferative CCK-8 assay, A375; assay type: cell-based; settings: Homo sapiens, A-375; A375, CCK-8 assay, means ± SD; read-out: GC50 (the source's name)
Excerpt: as §1, §2

A549 = assay: Antiproliferative CCK-8 assay, A549; assay type: cell-based; settings: Homo sapiens; A549, CCK-8 assay, means ± SD; read-out: GC50 (the source's name)
Excerpt: as §1, §2

HCT-116 = assay: Antiproliferative CCK-8 assay, HCT-116; assay type: cell-based; settings: Homo sapiens; HCT-116, CCK-8 assay, means ± SD; read-out: GC50 (the source's name)
Excerpt: as §1, §2

SW480 = assay: Antiproliferative CCK-8 assay, SW480; assay type: cell-based; settings: Homo sapiens; SW480, CCK-8 assay, means ± SD; read-out: GC50 (the source's name)
Excerpt: as §1, §2

HT-29 = assay: Antiproliferative CCK-8 assay, HT-29; assay type: cell-based; settings: Homo sapiens; HT-29, CCK-8 assay, means ± SD; read-out: GC50 (the source's name)
Excerpt: as §1, §2

GES-1 = assay: In vitro toxicity CCK-8 assay, GES-1; assay type: cell-based; settings: Homo sapiens, GES1, GES-1 gastric mucosal epithelial cell, read-out: GC50 (the source's name)
Excerpt: as §1, §2

[1] = Caco-2 permeability determination; assay type: in vitro ADME; settings: human; for Papp A→B: Caco-2, A→B; for Papp B→A: Caco-2, B→A
[2] = Caco-2, Caco-2, A→B, read-out: Recovery A→B
[3] = Caco-2, Caco-2, B→A, read-out: Recovery B→A

Row | SMILES | inhibition at 0.2 µM (CDK8) [%] | IC50 (CDK8) [nM] | other results
1 | NC(=O)c1cccc(-c2cnc3[nH]ccc3n2)c1 [Compound 1] | 63 ± 4.5 | 106 ± 4.6 | –
2 | NC(=O)c1cccc(-c2cnc3[nH]ncc3c2)c1 [Compound 2] | 35.2 ± 2.8 | – | –
3 | NC(=O)c1cccc(-c2ccc(N)nc2)c1 [Compound 3] | 50.8 ± 2.3 | 177 ± 7.2 | –
4 | NC(=O)c1cccc(-c2cnc(N)c(Cl)c2)c1 [Compound 4] | 45.6 ± 4.2 | – | –
5 | NC(=O)c1cccc(-c2cncc3ccccc23)c1 [Compound 5] | 55.7 ± 3.8 | 186 ± 4.5 | –
6 | NC(=O)c1cccc(-c2cnc(N)c3ccccc23)c1 [Compound 6] | 75.8 ± 5.9 | 64.5 ± 3.8 | –
7 | NC(=O)c1cccc(-c2ccc3[nH]ccc3c2)c1 [Compound 7] | 59.1 ± 2.1 | 212 ± 6.1 | –
8 | Cn1ccc2cc(-c3cccc(C(N)=O)c3)ccc21 [Compound 8] | 51.7 ± 5.4 | 255 ± 4.5 | –
9 | NC(=O)c1cccc(-c2ccc3occc3c2)c1 [Compound 9] | 60.4 ± 4.3 | 190 ± 4.9 | –
10 | NC(=O)c1cccc(-c2ccc3sccc3c2)c1 [Compound 10] | 38.3 ± 2.2 | – | –
11 | NC(=O)c1cccc(-c2cnc3[nH]cc(Cl)c3c2)c1 [Compound 11] | 51.8 ± 4.3 | – | –
12 | NC(=O)c1cccc(-c2cnc3[nH]cc(-c4ccsc4)c3c2)c1 [Compound 13] | 70.4 ± 3.6 | 65.7 ± 3.1 | IC50 (molm-13): 160 ± 20 nM; IC50 (MV4-11): 360 ± 120 nM; IC50 (MGC-803): 9190 ± 2420 nM; IC50 (MDA-MB-231): 31500 ± 1270 nM; IC50 (A375): 950 ± 520 nM; IC50 (A549): 21800 ± 1660 nM; IC50 (HCT-116): 2480 ± 990 nM; IC50 (SW480): 5450 ± 2820 nM; IC50 (HT-29): 9310 ± 1670 nM; IC50 (GES-1): 24200 ± 3620 nM
13 | NC(=O)c1cccc(-c2cnc3[nH]cc(-c4cccs4)c3c2)c1 [Compound 14] | 52.5 ± 2.8 | 186 ± 4.6 | –
14 | NC(=O)c1cccc(-c2cnc3[nH]cc(-c4cn[nH]c4)c3c2)c1 [Compound 15] | 49.1 ± 3.4 | – | –
15 | Cn1cc(-c2c[nH]c3ncc(-c4cccc(C(N)=O)c4)cc23)cn1 [Compound 16] | 29.5 ± 2.3 | – | –
16 | CCOC(C)n1cc(-c2c[nH]c3ncc(-c4cccc(C(N)=O)c4)cc23)cn1 (centres unmarked) [Compound 17] | 46.5 ± 1.8 | – | –
17 | NC(=O)c1cccc(-c2cnc3[nH]cc(-c4cnn(C(F)F)c4)c3c2)c1 [Compound 18] | 32.5 ± 4.9 | – | –
18 | NC(=O)c1cccc(-c2cnc3[nH]cc(-c4ccccc4)c3c2)c1 [Compound 19] | 57.4 ± 1.4 | 158 ± 4.3 | –
19 | NC(=O)c1cccc(-c2cnc3[nH]cc(-c4ccccc4F)c3c2)c1 [Compound 20] | 58.7 ± 3.3 | 161 ± 3.1 | –
20 | NC(=O)c1cccc(-c2cnc3[nH]cc(-c4ccccc4Cl)c3c2)c1 [Compound 21] | 23.6 ± 2.6 | – | –
21 | NC(=O)c1cccc(-c2cnc3[nH]cc(-c4ccccc4O)c3c2)c1 [Compound 22] | 36.2 ± 2.7 | – | –
22 | Cc1ccccc1-c1c[nH]c2ncc(-c3cccc(C(N)=O)c3)cc12 [Compound 23] | 51.6 ± 2.6 | 193 ± 6.6 | –
23 | CCc1ccccc1-c1c[nH]c2ncc(-c3cccc(C(N)=O)c3)cc12 [Compound 24] | 24.6 ± 2.4 | – | –
24 | COc1ccccc1-c1c[nH]c2ncc(-c3cccc(C(N)=O)c3)cc12 [Compound 25] | 62 ± 4.6 | 136 ± 5.3 | –
25 | CC(C)c1ccccc1-c1c[nH]c2ncc(-c3cccc(C(N)=O)c3)cc12 [Compound 26] | 33.1 ± 4.2 | – | –
26 | NC(=O)c1cccc(-c2cnc3[nH]cc(-c4ccccc4C(F)(F)F)c3c2)c1 [Compound 27] | 15.9 ± 5.2 | – | –
27 | C[C@H]1O[C@@H](O[C@H]2[C@@H](O)C[C@H](O[C@H]3[C@@H](O)C[C@H](O[C@H]4CC[C@@]5(C)[C@H](CC[C@@H]6[C@@H]5C[C@@H](O)[C@]5(C)[C@@H](C7=CC(=O)OC7)CC[C@]65O)C4)O[C@@H]3C)O[C@@H]2C)C[C@H](O)[C@@H]1O [Digoxin] | – | – | efflux ratio ([1]; Caco-2): 6.2; recovery [1, 2]: 92.5%; recovery [1, 3]: 99.2%; Papp A→B [1]: 0.9 ×10⁻⁶ cm/s; Papp B→A [1]: 5.6 ×10⁻⁶ cm/s
28 | CC(C)(C)NCC(O)COc1cccc2c1CC(O)C(O)C2 (centres unmarked) [Nadolol] | – | – | recovery [1, 3]: 111%; Papp A→B [1]: 0.2 ×10⁻⁶ cm/s; Papp B→A [1]: 0.5 ×10⁻⁶ cm/s
29 | CC(C)NCC(O)COc1cccc2ccccc12 (centres unmarked) [Propranolol] | – | – | recovery [1, 2]: 99.9%; recovery [1, 3]: 107%; Papp A→B [1]: 40.2 ×10⁻⁶ cm/s; Papp B→A [1]: 34.1 ×10⁻⁶ cm/s

More lines, main results first:

Row | inhibition at 0.2 µM (CDK8) [%] | IC50 (CDK8) [nM] | SMILES | other results
30 | 16.9 ± 2.2 | – | NC(=O)c1cccc(-c2cnc3[nH]cc(-c4ccccc4OC(F)(F)F)c3c2)c1 [Compound 28] | –
31 | 23.1 ± 2.5 | – | NC(=O)c1cccc(-c2cnc3[nH]cc(-c4cccc(F)c4)c3c2)c1 [Compound 29] | –
32 | 65.5 ± 3.8 | 86.7 ± 6.5 | NC(=O)c1cccc(-c2cnc3[nH]cc(-c4cccc(Cl)c4)c3c2)c1 [Compound 30] | IC50 (molm-13): > 50000 nM; IC50 (MV4-11): > 50000 nM; IC50 (MGC-803): > 50000 nM; IC50 (MDA-MB-231): > 50000 nM; IC50 (A375): > 50000 nM; IC50 (A549): > 50000 nM; IC50 (HCT-116): > 50000 nM; IC50 (SW480): > 50000 nM; IC50 (HT-29): > 50000 nM; IC50 (GES-1): > 100000 nM
33 | 30.5 ± 2.3 | – | NC(=O)c1cccc(-c2cnc3[nH]cc(-c4cccc(O)c4)c3c2)c1 [Compound 31] | –
34 | 44 ± 3.8 | – | COc1cccc(-c2c[nH]c3ncc(-c4cccc(C(N)=O)c4)cc23)c1 [Compound 32] | –
35 | 34.6 ± 4.1 | – | NC(=O)c1cccc(-c2cnc3[nH]cc(-c4cccc(C(F)(F)F)c4)c3c2)c1 [Compound 33] | –
36 | 23.4 ± 3.3 | – | NC(=O)c1cccc(-c2cnc3[nH]cc(-c4cccc(OC(F)(F)F)c4)c3c2)c1 [Compound 34] | –
37 | 55.8 ± 4.6 | – | NC(=O)c1cccc(-c2cnc3[nH]cc(-c4ccc(F)cc4)c3c2)c1 [Compound 35] | –
38 | 61.6 ± 5.4 | 128 ± 3.8 | NC(=O)c1cccc(-c2cnc3[nH]cc(-c4ccc(Cl)cc4)c3c2)c1 [Compound 36] | –
39 | 28.3 ± 3.1 | – | NC(=O)c1cccc(-c2cnc3[nH]cc(-c4ccc(O)cc4)c3c2)c1 [Compound 37] | –
40 | 26.4 ± 1.6 | – | COc1ccc(-c2c[nH]c3ncc(-c4cccc(C(N)=O)c4)cc23)cc1 [Compound 38] | –
41 | 22.3 ± 3.7 | – | NC(=O)c1cccc(-c2cnc3[nH]cc(-c4ccc(C(F)(F)F)cc4)c3c2)c1 [Compound 39] | –
42 | 46.3 ± 1.9 | – | NC(=O)c1cccc(-c2cnc3[nH]cc(-c4ccc(OC(F)(F)F)cc4)c3c2)c1 [Compound 40] | –
43 | 82.5 ± 5.8 | 37.2 ± 2.5 | Cc1c(Br)c(Br)c2c3c1nc(N1CCNCC1)n3CCC2 [SEL-120-34A, reference compound] | IC50 (molm-13): 20 ± 10 nM; IC50 (MV4-11): 7 ± 1 nM; IC50 (MGC-803): 16300 ± 1860 nM; IC50 (MDA-MB-231): 9600 ± 810 nM; IC50 (A375): 5900 ± 1430 nM; IC50 (A549): 12100 ± 370 nM; IC50 (HCT-116): 11300 ± 1900 nM; IC50 (SW480): 17700 ± 2100 nM; IC50 (HT-29): 33800 ± 1400 nM; IC50 (GES-1): 55300 ± 3200 nM
